Among the data in patent US7115624B1, “Method of inhibiting protein tyrosine phosphatase 1B and/or T-cell protein tyrosine phosphatase 4 and/or other PTPases with an Asp residue at position 48” (Novo Nordisk A/S, priority 1999, dated 2006) are Ki values, retold here.

pKi: −log10 of the molar value.

What all share (assay type): biochemical
In one assay the target is T1, PTP1B G259Q (Homo sapiens, UniProt P18031, G259Q).
T1 sequence (P18031 1-435 G259Q): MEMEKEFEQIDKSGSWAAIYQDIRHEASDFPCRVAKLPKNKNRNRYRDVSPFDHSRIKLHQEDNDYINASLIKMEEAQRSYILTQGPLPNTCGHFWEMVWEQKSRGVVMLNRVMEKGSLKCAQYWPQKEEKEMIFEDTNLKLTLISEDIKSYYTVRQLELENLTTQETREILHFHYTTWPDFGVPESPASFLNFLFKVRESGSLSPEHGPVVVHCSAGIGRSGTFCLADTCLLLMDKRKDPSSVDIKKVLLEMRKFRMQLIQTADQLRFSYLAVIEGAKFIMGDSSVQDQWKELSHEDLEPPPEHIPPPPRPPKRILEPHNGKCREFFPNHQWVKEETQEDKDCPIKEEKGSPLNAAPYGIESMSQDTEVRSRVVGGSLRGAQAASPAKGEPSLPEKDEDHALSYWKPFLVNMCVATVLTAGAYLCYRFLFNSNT
Put plainly: Enzyme kinetic analysis with mutant PTPs, Ki. The note with it: pH 7.0. The text has this: (§1) To test directly, whether the above compound was addressing the proposed region of PTP1B, Compound N was subjected to detailed enzyme kinetic analyses using a set of wildtype (wt) and mutant PTPs. Two enzymes, PTPα and PTPH1, were chosen as representatives for PTPs with bulky side chains in the 259 position. Using a combination of wt and PTP mutants it has previously been shown that Gln259 in PTPα, in addition to its direct effect, also indirectly influences the binding of inhibitors and substrates, most likely due to a negative influence on the rotational freedom of the side chain of Gln262 (Peters et al., J. Biol. Chem. 275: 18201–18209 (2000)). As described above, selectivity can be obtained by introducing a basic nitrogen into 2-(oxalylamino)-4,5,6,7-tetrahydrobenzo[b]thiophene-3-carboxylic acid that causes attraction in PTP1B due to salt bridge formation to Asp48 and repulsion against PTPs with an asparagine in the 48 position, such as PTPα. To analyze if the current approach based on steric hindrance is generally applicable, it was decided to include a PTP with an aspartic acid in position 48. PTPH1, which like PTP1B is an intracellular enzyme with one domain only, was selected for these studies. The results of these studies are shown below (Table 4).
(§2) The assay conditions are as follows.

The target of another assay is T2, PTPH1 M259G (Homo sapiens, UniProt P26045, M883G).
T2 sequence (P26045 628-913 M883G limits assumed): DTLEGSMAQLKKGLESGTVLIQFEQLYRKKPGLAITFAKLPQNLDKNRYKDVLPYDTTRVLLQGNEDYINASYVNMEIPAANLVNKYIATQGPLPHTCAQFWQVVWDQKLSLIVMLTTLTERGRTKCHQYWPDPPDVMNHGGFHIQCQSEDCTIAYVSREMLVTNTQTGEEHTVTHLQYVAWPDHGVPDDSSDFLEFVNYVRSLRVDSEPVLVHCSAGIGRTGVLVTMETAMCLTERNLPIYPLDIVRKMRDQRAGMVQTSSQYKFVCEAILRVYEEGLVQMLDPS
Put plainly: Enzyme kinetic analysis with mutant PTPs, Ki. The note with it: pH 7.0.
From the text: as §1, §2

In the next assay the target is PTPβ (Homo sapiens, UniProt P23467). As to the kind of experiment: PTPase inhibition, p-nitrophenyl phosphate substrate, Ki. The conditions noted are these: pH 7.0 (Table 5); read-out: Ki values, PTPβ.
In another assay the target is T3, PTPε (Homo sapiens, UniProt P23469).
T3 construct: PTPε D1
The description is as above. The note with it: pH 7.0 (Table 5); read-out: Ki values, PTPε.

For the next assay, the target named is T4, TC-PTP (Homo sapiens, UniProt P17706).
T4 sequence (P17706 5-275 limits assumed): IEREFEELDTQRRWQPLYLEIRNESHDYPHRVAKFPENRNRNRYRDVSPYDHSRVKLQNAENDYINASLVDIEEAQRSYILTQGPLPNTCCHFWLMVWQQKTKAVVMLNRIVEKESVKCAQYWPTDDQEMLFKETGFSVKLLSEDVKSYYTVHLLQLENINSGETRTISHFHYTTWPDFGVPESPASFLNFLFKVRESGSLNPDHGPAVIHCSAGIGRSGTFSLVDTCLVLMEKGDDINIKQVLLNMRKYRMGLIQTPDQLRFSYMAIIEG
The description is as above. The conditions noted are these: pH 7.0 (Table 5). As for the experimental part:
(§3) Specificity against a broad set of PTPs—It was next analyzed if the side chain of NNC 52–1153 would cause the increased selectivity against other PTPs. NNC 52–1153 was tested against a set of 10 different wt PTP domains (Table 5). It appears from this table that a substantial increase in affinity for PTP1B and TC-PTP has been obtained, while at the same time introducing a very high degree of selectivity against many other PTPs representing a broad spectrum of this class of enzymes (having Asp 48).
as §2

The next assay deals with T5, GLEPP1 (Homo sapiens, UniProt Q16827).
T5 sequence (Q16827 938-1195 limits assumed): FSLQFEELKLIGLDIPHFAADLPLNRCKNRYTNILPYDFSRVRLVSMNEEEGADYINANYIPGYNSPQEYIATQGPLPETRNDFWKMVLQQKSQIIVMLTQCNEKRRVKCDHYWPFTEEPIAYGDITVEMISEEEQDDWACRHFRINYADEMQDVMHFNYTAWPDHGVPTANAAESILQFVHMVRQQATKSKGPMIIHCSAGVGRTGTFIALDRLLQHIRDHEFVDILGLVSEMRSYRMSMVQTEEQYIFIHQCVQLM
The description is as above. The conditions noted are these: pH 7.0 (Table 5). As for the experimental part: as §3, §2

Chain of PTPβ (P23467 1703-1963 limits assumed): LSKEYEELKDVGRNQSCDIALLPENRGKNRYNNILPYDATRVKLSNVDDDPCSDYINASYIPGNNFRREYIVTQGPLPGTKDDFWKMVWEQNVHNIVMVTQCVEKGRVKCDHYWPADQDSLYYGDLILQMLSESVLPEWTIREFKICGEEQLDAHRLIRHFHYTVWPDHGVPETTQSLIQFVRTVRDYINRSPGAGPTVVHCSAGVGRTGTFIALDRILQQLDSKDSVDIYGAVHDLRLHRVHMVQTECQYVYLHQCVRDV
T3 sequence (P23469 135-394 limits assumed): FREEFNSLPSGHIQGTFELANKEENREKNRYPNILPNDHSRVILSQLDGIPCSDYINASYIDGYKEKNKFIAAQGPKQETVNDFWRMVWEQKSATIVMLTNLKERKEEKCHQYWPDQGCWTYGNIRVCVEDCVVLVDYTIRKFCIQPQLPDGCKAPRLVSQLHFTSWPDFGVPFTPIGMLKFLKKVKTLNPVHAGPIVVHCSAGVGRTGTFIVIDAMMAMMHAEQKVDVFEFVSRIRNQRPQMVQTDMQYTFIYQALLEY
Experimental for PTPβ: (§4) The assay conditions are as follows. Appropriate concentrations of the compounds of the invention (e.g., 0.1 to 100 μM) are added to the reaction mixtures containing different concentrations of the substrate, p-nitrophenyl phosphate (range: 0.16 to 10 mM—final assay concentration). The buffer used was 50 mM HEPES pH 7.0, 100 mM sodium chloride, 0.1% (w/v) bovine serum albumin, 5 mM glutathione, and 1 mM EDTA. The reaction was started by addition of the enzyme and carried out in microtiter plates at 25° C. for 60 minutes. The reactions are stopped by addition of NaOH. […] The data are analyzed using nonlinear regression fit to classical Michaelis Menten enzyme kinetic models. Inhibition is expressed as Ki values in μM.
Experimental for PTPε: as §4

On to `O=C(O)C(=O)Nc1sc2c(c1C(=O)O)CCOC2COC1=NS(=O)(=O)c2ccccc21` (stereo not drawn) [Compound N, 7-(1,1-dioxo-1H-benzo[d]isothiazol-3-yloxymethyl)-2-(oxalyl-amino)-4,7-dihyd ro-5H-thieno[2,3-c]pyran-3-carboxylic acid], for which the pKi at PTP1B G259Q was 4.19; at PTPH1 M259G, 4.92; on PTPβ it was 4.82; at PTPε, 3.34; on TC-PTP, 6.22; at GLEPP1, 3.82.
